Converted amounts (≈) assume the structure as drawn.
Columns and labels:
[1] = target: T1, Substance-K receptor (Homo sapiens, UniProt P21452); assay: Displacement of [125I]neurokinin A from human NK2 receptor after 30 mins
T1 sequence (P21452 whole entry): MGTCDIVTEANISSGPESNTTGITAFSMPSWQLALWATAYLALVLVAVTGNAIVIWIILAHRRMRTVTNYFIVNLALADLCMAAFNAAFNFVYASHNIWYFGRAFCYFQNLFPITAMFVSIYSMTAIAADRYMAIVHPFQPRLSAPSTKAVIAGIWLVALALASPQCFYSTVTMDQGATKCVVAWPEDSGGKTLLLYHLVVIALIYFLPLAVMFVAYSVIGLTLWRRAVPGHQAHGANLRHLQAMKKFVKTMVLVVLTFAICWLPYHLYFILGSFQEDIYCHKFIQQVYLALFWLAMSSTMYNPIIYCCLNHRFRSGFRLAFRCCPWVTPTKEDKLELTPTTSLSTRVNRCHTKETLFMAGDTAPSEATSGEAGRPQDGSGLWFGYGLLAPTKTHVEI

[2] = Permeability across apical to basolateral side in human Caco2 cells at 100 uM; assay type: ADME, cell-based; settings: Caco-2, read-out: permeability
[3] = Aqueous solubility of the compound at pH 6.4; assay type: physicochemical
[4] = Membrane permeability by PAMPA assay; assay type: ADME; settings: read-out: permeability

SMILES | Ki [1] [nM] | Papp A→B at 100 µM [2] [×10⁻⁶ cm/s] | solubility [3] [µg/mL] | Papp [4] [×10⁻⁶ cm/s]
O=C(NC1(C(=O)N[C@@H](Cc2ccccc2)C(=O)NCC2CCN(CC3CCOCC3)CC2)CCCC1)c1ccc(-n2cccc2)cc1 | 0.234 | < 1 | 1450 (≈ 2.27 mM) | –
O=C(NC1(C(=O)N[C@@H](Cc2ccccc2)C(=O)NCC2CCN(CC3CCOCC3)CC2)CCCC1)c1ccc(-n2cccc2)cc1Cl | 3.98 | 4.21 | > 2820 | 0.16
O=C(NC1(C(=O)N[C@@H](Cc2ccccc2)C(=O)NCC2CCN(CC3CCOCC3)CC2)CCCC1)c1ccc(-n2cccc2)cc1F | 3.24 | 13.8 | > 2860 | 0.66
CCCCc1ccc(C(=O)NC2(C(=O)N[C@@H](Cc3ccccc3)C(=O)NCC3CCN(CC4CCOCC4)CC3)CCCC2)cc1 | – | – | > 2410 | –
CCCCc1ccc(C(=O)NC2(C(=O)N[C@@H](Cc3ccccc3)C(=O)NCC3CCN(CC4CCOCC4)CC3)CCCC2)nc1 | – | – | > 6600 | –
O=C(NC1(C(=O)N[C@H](CCCN2CCN(CC3CCOCC3)CC2)Cc2ccccc2)CCCC1)c1ccc2ccccc2c1 | 0.324 | 14.7 | 1570 (≈ 2.57 mM) | 5.96
O=C(NC1(C(=O)N[C@H](CCCN2CCN(CC3CCOCC3)CC2)Cc2ccccc2)CCCC1)c1cc2ccccc2cn1 | 2.04 | 25.2 | 2800 (≈ 4.58 mM) | 15.5
COc1cc2ccccc2cc1C(=O)NC1(C(=O)N[C@H](CCCN2CCN(CC3CCOCC3)CC2)Cc2ccccc2)CCCC1 | 8.32 | 13.6 | 3070 (≈ 4.79 mM) | 11.9
COc1c(C(=O)NC2(C(=O)N[C@H](CCCN3CCN(CC4CCOCC4)CC3)Cc3ccccc3)CCCC2)ccc2ccccc12 | 44.7 | 11.7 | 1910 (≈ 2.98 mM) | 6.77
